In publication PMC10135059, “Kaurane-Type Diterpenoids as Potential Inhibitors of Dihydrofolate Reductase-Thymidylate Synthase in New World Leishmania Species” (Antibiotics, 2023):

Tests used:
[1] = molecular target: T1, L. major dihydrofolate reductase (LmDHFR), recombinant LmDHFR-TS (Leishmania major, UniProt P07382); experiment: LmDHFR-TS enzyme inhibition assay (spectrophotometric, standard DHFR conditions); type: biochemical
T1 construct: made in house
Method: Then, using the Cheng–Prusoff equation and assuming reversible competitive inhibition and a 1:1 stoichiometry, the apparent inhibitory constant (Ki^app) was calculated for the selected kauranes using the IC50 results, as shown in Table 1.
Purification and kinetic characterization of the recombinant LmDHFR-TS protein was performed according to the previously reported procedures. The in vitro evaluation of selected diterpenoids (i.e., 4, 135, 301, 302, 301a, and 302a) for inhibitory activity against LmDHFR-TS was conducted using a spectrophotometric assay under standard DHFR conditions. The assay consisted of LmDHFR (2.7 nM), bovine serum albumin (BSA, 1 mg/mL), N-[tris(hydroxymethyl)-methyl]-2-aminoethanesulfonic acid (TES) buffer (100 mM, pH 7.0, […] β-mercaptoethanol, 2 mM ethylenediaminetetraacetic acid (EDTA)), and nicotinamide adenine dinucleotide phosphate (NADPH, 100 μM) with varying concentrations of the test compounds (0.1–128 μM). The reaction was initiated by adding the substrate (7,8-dihydrofolate (H2F), 20 μM) and was monitored for 360 s at 340 nm (i.e., oxidation of NADPH to NADP+) to determine the initial reaction rate (Vo) through linear regression analysis of the resulting absorbance profile. […] The Ki^app values were finally calculated using the Cheng–Prusoff equation for competitive inhibition with a 1:1 stoichiometry and reversible inhibitor-binding reactions: Ki^app = IC50/(1 + [S]/Km), where [S] is the substrate (H2F) concentration and Km is the Michaelis constant.

[2] = test system: Leishmania major PTR1 (LmPTR1); parameters: method as in PMID 34063939; details: previous study; cited from earlier work
[3] = molecular target: L. chagasi PTR1 and DHFR-TS; parameters: method as in PMID 31409157; details: L. chagasi PTR1 vs DHFR-TS; cited from earlier work
[4] = molecular target: T1, L. major dihydrofolate reductase (LmDHFR), recombinant LmDHFR-TS; experiment: LmDHFR-TS enzyme inhibition assay (spectrophotometric, standard DHFR conditions); type: biochemical; details: cutoff pIC50 value of the L. major machine learning model
[5] = IC50, LmDHFR 2.7 nM, NADPH 100 μM, H2F 20 μM, test compounds 0.1–128 μM, triplicate

T1 sequence (P07382 whole entry): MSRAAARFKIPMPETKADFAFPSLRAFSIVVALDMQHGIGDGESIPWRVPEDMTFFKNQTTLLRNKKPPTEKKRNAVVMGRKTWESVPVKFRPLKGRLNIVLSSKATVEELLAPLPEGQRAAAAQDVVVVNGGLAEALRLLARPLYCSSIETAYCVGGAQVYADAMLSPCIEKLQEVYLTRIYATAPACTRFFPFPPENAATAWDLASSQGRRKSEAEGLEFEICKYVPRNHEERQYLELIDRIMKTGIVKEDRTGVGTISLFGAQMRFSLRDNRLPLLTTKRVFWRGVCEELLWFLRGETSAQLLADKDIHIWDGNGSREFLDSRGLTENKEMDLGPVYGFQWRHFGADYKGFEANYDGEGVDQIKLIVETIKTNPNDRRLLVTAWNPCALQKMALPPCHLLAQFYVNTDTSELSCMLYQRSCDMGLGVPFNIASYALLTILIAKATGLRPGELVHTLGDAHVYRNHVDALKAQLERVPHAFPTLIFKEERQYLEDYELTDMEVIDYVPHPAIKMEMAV

SMILES | Ki [1] [µM] | IC50 [1, 5] [µM] | reduction of Ki^app compared to kauranes 301 and 302 ([1]; effect of p-hydroxyl group, 301a vs 301, 302a vs 302) [%] | IC50 ([1]; pIC50, pIC50 = −log IC50) [µM] | classification against PTR1 [2] | Ki^Lc^PTR1/Ki^Lc^DHFR-TS ratio [3] | classification against DHFR-TS [4] | half-maximal inhibitory concentrations (IC50) against PTR1 [2]
CC1(C)OCC2(CC34CCC5C(C)(C)C(=O)CCC5(C)C3CCC2C4)O1 (stereo not drawn) [structure 4, 16ß,17-Isopropylidenedioxy-ent-kauran-3-one] | 0.81 | 7.6 |  |  |  |  |  | 
C=C1CC23CCC4C(C)(C(=O)O)C(OC(=O)C=Cc5ccc(O)cc5)CCC4(C)C2(O)CCC1C3 (stereo not drawn) [structure 301a, 3α-p-coumaroyloxy-9β-hydroxy-ent-kaur-16-en-19-oic acid] | 0.85 | 7.9 | 10 | < 10 | inactive |  |  | 
C=C1CC23CCC4C(C)(C(=O)OC5C=C(C)C(O)CC5C(C)C)CCCC4(C)C2CCC1C3 (stereo not drawn) [structure 135, 2β-hydroxy-menth-6-en-5β-yl ent-kaurenoate] | 1.2 | 11.2 |  |  |  |  |  | 
Nc1nc(N)c(Cc2ccccc2)c(CC2CCCCC2)n1 [2,4-diamine, 5-benzyl-6-(cyclohexylmethyl) pyrimidine-2,4-diamine] |  |  |  |  |  | 0.68 |  | 
C=C1CC23CCC4C(C)(C(=O)O)C(OC(=O)C=Cc5ccccc5)CCC4(C)C2(O)CCC1C3 (stereo not drawn) [structure 301, 3α-cinnamoyloxy-9β-hydroxy-ent-kaur-16-en-19-oic Acid] | 0.94 | 8.8 |  | < 10 | inactive |  | active | 
C=C1CC23CCC4C(C)(CCC(OC(=O)C=Cc5ccccc5)C4(C)C(=O)O)C2CCC1C3 (stereo not drawn) [structure 302, 3α-cinnamoyloxy-ent-kaur-16-en-19-oic acid] | 0.68 | 6.3 |  | < 10 |  |  |  | less than 10 µg/mL
